Assay results taken from US11963971B2, “Combination decitabine and cedazuridine solid oral dosage forms” (Otsuka Pharmaceutical Co., Ltd., priority 2020, dated 2024).
Marks after values point to notes of the source that are not given here.

Assays:
[1] = ASTX727 Phase 1 dose escalation study: plasma decitabine pharmacokinetics (AUC); assay type: in vivo, human; conditions: for AUC(0-t): human, plasma
Description: The ASTX727 Phase 1 study was a dose escalation designed to establish the recommended doses of cedazuridine and decitabine likely to achieve AUC equivalence with standard dose decitabine IV (decitabine 20 mg/m^2 IV). FIG. 1 provides an overview of the study design. In Cycle 1, each patient received a cohort-defined dose of oral decitabine on day −3, a 1-h intravenous infusion of decitabine 20 mg/m^2 on day 1, and cohort-defined doses of oral decitabine plus cedazuridine on days 2-5. In Cycles 2 and beyond, the oral decitabine and cedazuridine were given on days 1-5. The dose of cedazuridine was escalated first and decitabine was escalated once CDA inhibition by cedazuridine approached the maximum effect. Only one drug was escalated per cohort. Fixed doses were given without adjustment for bodyweight or body surface area. Days −3, 1, 2, and 5 for decitabine included a full-day pharmacokinetic analysis. The starting dose was 20 mg for oral decitabine and 40 mg for cedazuridine (a human equivalent dose with approximately 100 times greater safety margin than the no-observed adverse effect level in cynomolgus monkeys). […] Dose-limiting toxicity was defined as a grade 4 hematologic toxicity or grade 3 lasting more than 14 days and unrelated to the underlying disease. […] Dose escalation for patients who previously received a lower dose was allowed at the discretion of the investigator if the patient had tolerated the originally assigned doses.
The pharmacokinetic profile of decitabine was characterized through analysis of plasma treated with EDTA (edetic acid) by validated liquid chromatography-tandem mass spectrometry, with tetrahydrouridine (Santa Cruz Biotechnology, Dallas, TX) for stabilization and with a linear assay range of 0.5-100 ng/mL for decitabine. Serial plasma samples (from before dose administration until 24 h after administration) were collected on days −3, 1, 2, and 5 (also immediately before dose administration on days 3 and 4) during the first cycle. Specifically, pharmacokinetic samples were obtained before dose administration and 0.25 h, 0.5 h, 1.0 h (for IV only 1.083 h), 1.5 h, 2 h, 3 h, 4 h, 6 h, 8 h, and 24 h after the dose.

[2] = ASTX727 Phase 2 randomized cross over dose confirmation: plasma decitabine 5-day AUC, oral vs IV; assay type: in vivo; conditions: human, read-out: Decitabine 5-day AUC0-t, IV Geo. LSM
[3] = tested on: MDS and CMML patients; test: Phase 2 safety: related adverse events Grade ≥3 in ≥5% of patients; assay type: in vivo, human; conditions: Phase 2, Cycle 1 or 2; IV DEC N = 75, ASTX727 N = 78
Description: The ASTX727 Phase 2 study was a randomized cross over design of decitabine 20 mg/m^2 IV daily (for 5 days) vs. oral decitabine/cedazuridine once daily (for 5 days) in Cycle 1 with patients crossing over to the other drug in Cycle 2 (See FIG. 3). From Cycle 3 onward, all patients continued on oral decitabine/cedazuridine once daily (for 5 days), each cycle every 28 days, until progression.
Changes in DNA methylation after treatment were expressed as relative change (%), calculated as: 100×([methylation on a given post-treatment day]−[baseline methylation]. Adverse event assessments through physical examinations and laboratory monitoring (haematology, metabolic profile, and liver enzymes) were done before treatment on day 1 of each cycle (weekly for haematology in the first two cycles). While on treatment, patients were assessed for adverse events and clinical response, including haematology, metabolic profile, liver enzymes, directed physical examinations, vital signs, transfusion records, and dosing records. Once off treatment, patients were followed up for survival and transformation to acute myeloid leukemia. Dose reduction or delays were permitted at the investigators' discretion to allow for recovery from drug-related myelosuppression.

[4] = Phase 3 randomized cross over study: 5-day decitabine AUC equivalence, oral ASTX727 vs IV decitabine; assay type: in vivo; conditions: human, plasma, 20 mg/m2; Phase 3 primary analysis, paired population N=123; IV decitabine 20 mg/m^2; read-out: Decitabine 5-day AUC0-24, IV DEC Geo. LSM
From the text: The Primary Endpoint PK Analysis Set is used to calculate decitabine 5-day cumulative AUC0-t exposures after administration of the solid dosage form. The following assumptions are used: • 1) Steady state is reached on Day 2 of dosing with the solid dosage form; • 2) Based on steady state achievement on Day 2, decitabine AUC0-t from Day 2 and Day 5 is representative of daily AUC0-t on Days 2 through Day 5 in a putative 5-day dosing with the solid dosage form.
Therefore, to calculate total 5-day oral decitabine AUC0-t exposures using PK data from 3 days sequential PK sampling, Day 1 AUC0-t (first solid dosage form dose) is added to (Day 2 AUC0-t+Day 5 AUC0-t)×2. If AUC0-t on Day 2 is not available, it is replaced by AUC0-t on Day 5; the converse is also true.
If AUC0-t on Day 1 is not available, it is replaced by AUC0-t on Day 5; the converse is also true. Note that t=24 hrs, so AUC0-t is AUC0-24.
Phase 3 was a randomized cross over design where MDS and CMML patients eligible to receive decitabine were randomized to Sequence A where they received ASTX727 in Cycle 1 then IV decitabine in Cycle 2, or Sequence B with the reverse order. All patients received ASTX727 from Cycle 3 onwards to assess long term efficacy and safety. 118 evaluable patients were needed to show AUC equivalence between oral and IV administrations. […]

Nc1ncn([C@H]2C[C@H](O)[C@@H](CO)O2)c(=O)n1 [IV DEC, 5-aza-2′-deoxycytidine]
5-days Total AUC0-t, IV (N = 41), geometric mean ([1]; IV decitabine 20 mg/m^2, total IV population of all cohorts (N = 41)): 821^d h · ng/ml | AUC(0-t) ([1]; iv, 20 mg/m2, Cohort 1, N=5 (extreme outlier excluded), IV decitabine 20 mg/m^2, day 1, read-out: AUC0-t by day, IV D1, Geometric Mean (gCV %)): 138 ng·h/mL | AUC(0-t) ([1]; iv, 20 mg/m2, Cohort 2, N=6, IV decitabine 20 mg/m^2, day 1, read-out: AUC0-t by day, IV D1, Geometric Mean (gCV %)): 170 ng·h/mL | AUC(0-t) ([1]; iv, 20 mg/m2, Cohort 3, N=6, IV decitabine 20 mg/m^2, day 1, read-out: AUC0-t by day, IV D1, Geometric Mean (gCV %)): 192 ng·h/mL | AUC(0-t) ([1]; iv, 20 mg/m2, Cohort 4, N=6, IV decitabine 20 mg/m^2, day 1, read-out: AUC0-t by day, IV D1, Geometric Mean (gCV %)): 153 ng·h/mL | AUC(0-t) ([1]; iv, 20 mg/m2, Cohort 5, IV decitabine 20 mg/m^2, day 1, IV data from 18 patients (one extreme outlier excluded), read-out: AUC0-t by day, IV D1, Geometric Mean (gCV %)): 166 ng·h/mL | AUC(0-t) ([1]; iv, 20 mg/m^2, Cohort 1, N=6, IV decitabine 20 mg/m^2 1-h infusion, day 1, read-out: AUC0-t by day, IV D1, Geometric Mean (gCV %)): 159 ng·h/mL | AUC(0-t) ([1]; po, 20 mg, Cohort 1, N=5 (extreme outlier excluded), oral DEC 20 mg alone, day −3, read-out: AUC0-t by day, D −3 (DEC alone), Geometric Mean (gCV %)): 7.9 ng·h/mL | AUC(0-t) ([1]; po, 20 mg, Cohort 1, N=6, oral DEC 20 mg alone, day −3, plasma decitabine, read-out: AUC0-t by day, D −3 (DEC alone), Geometric Mean (gCV %)): 10.7 ng·h/mL | AUC(0-t) ([1]; po, 20 mg, Cohort 2, N=6, oral DEC 20 mg alone, day −3, read-out: AUC0-t by day, D −3 (DEC alone), Geometric Mean (gCV %)): 7.49 ng·h/mL | AUC(0-t) ([1]; po, 20 mg, Cohort 3, N=6, oral DEC 20 mg alone, day −3, read-out: AUC0-t by day, D −3 (DEC alone), Geometric Mean (gCV %)): 7.9 ng·h/mL | AUC(0-t) ([1]; po, 30 mg, Cohort 5, N=19, oral DEC 30 mg alone, day −3, read-out: AUC0-t by day, D −3 (DEC alone), Geometric Mean (gCV %)): 15.3 ng·h/mL | AUC(0-t) ([1]; po, 40 mg, Cohort 4, N=6, oral DEC 40 mg alone, day −3, read-out: AUC0-t by day, D −3 (DEC alone), Geometric Mean (gCV %)): 29.8 ng·h/mL | AUC(0-t) ([2]; 20 mg/m^2, Phase 2 FDC tablet stage, N=24, 20 mg/m^2 IV infusion (1 h) of decitabine): 745 ng·h/mL | AUC(0-t) ([2]; 20 mg/m^2, Phase 2 capsule stage, N=40, 20 mg/m^2 IV infusion (1 h) of decitabine): 803 ng·h/mL | Anemia, related AE Grade ≥3 [3]: 4 (5.3%) n (%) | Any Grade ≥3 Related AEs [3]: 24 (32%) n (%) | Febrile Neutropenia, related AE Grade ≥3 [3]: 4 (5.3%) n (%) | Leukopenia, related AE Grade ≥3 [3]: 6 (8.0%) n (%) | Neutropenia, related AE Grade ≥3 [3]: 16 (21.3%) n (%) | Thrombocytopenia, related AE Grade ≥3 [3]: 11 (14.7%) n (%) | AUC(0-t) [4]: 865 ng·h/mL
